In ChEMBL document CHEMBL4130353, “2-Substituted 3,7,8-trimethylnaphtho[1,2-b]furan-4,5-diones as specific L-shaped NQO1-mediated redox modulators for the treatment of non-small cell lung cancer” (Eur J Med Chem, 2017):
≈ marks a conversion by molar mass, not a printed value. Calls of active or inactive are those of the source. The rule behind the calls is not given here.

How the values were obtained:
A549 [1] = assay: Induction of apoptosis in human A549 cells assessed as chromatin condensation after 24 hrs by DAPI-staining based microscopy; type: functional, cell-based
[2] = target: NAD(P)H dehydrogenase [quinone] 1 (Homo sapiens) (UniProt P15559); assay: Substrate activity at NQO1 in human A549 cells assessed as induction of ROS-induced ERK phosphorylation after 3 hrs by Western blot analysis; type: cell-based
[3] = target: NAD(P)H dehydrogenase [quinone] 1 (Homo sapiens) (UniProt P15559); assay: Substrate activity at NQO1 in human A549 cells assessed as induction of ROS-induced Akt phosphorylation at […] at 10 uM after 3 hrs by Western blot analysis relative to control; type: cell-based
Mus musculus = assay: Toxicity in athymic nude mouse xenografted with human A549 cells assessed as reduction in body weight at 50 mg/kg, iv administered every other day for 3 weeks relative to control; type: organism-based; design: scale not given: the % may be the effect or the level left; details: in vivo, 504 h
[4] = target: NAD(P)H dehydrogenase [quinone] 1 (Homo sapiens) (UniProt P15559); assay: Substrate activity at NQO1 in human A549 cells assessed as induction of ROS-induced Akt phosphorylation at S473 at 10 uM after 3 hrs by Western blot analysis relative to control; type: cell-based
[5] = target: NAD(P)H dehydrogenase [quinone] 1 (Homo sapiens) (UniProt P15559); assay: Substrate activity at NQO1 in human A549 cells assessed as induction of ROS-induced Akt phosphorylation at […] at 1 uM after 3 hrs by Western blot analysis relative to control; type: cell-based
A549 [6] = assay: Effect on total ERK protein levels in human A549 cells at 10 uM after 3 hrs in presence of NAC by Western blot analysis relative to control; type: ADME, cell-based; details: a549, 3 h
L02 = assay: Induction of intracellular ROS levels in human L02 cells at 10 uM after 1 to 3 hrs by DCFH-DA-based flow cytometry; type: cell-based; details: l02, 10 µM
[7] = target: NAD(P)H dehydrogenase [quinone] 1 (Homo sapiens) (UniProt P15559); assay: Substrate activity at NQO1 in human A549 cells assessed as induction of ROS-induced JNK phosphorylation at 10 uM after 3 hrs in presence of DIC by Western blot analysis relative to control; type: cell-based
[8] = target: NAD(P)H dehydrogenase [quinone] 1 (Homo sapiens) (UniProt P15559); assay: Substrate activity at NQO1 in human A549 cells assessed as induction of enzyme-catalyzed ROS production at 10 uM after 1 to 3 hrs in presence of DIC by DCFH-DA-based flow cytometry; type: cell-based
NCI-H596 = assay: Cytotoxicity against human NCI-H596 cells assessed as cell growth inhibition preincubated for 24 hrs followed by compound washout measured after 72 hrs by MTT assay; type: functional, cell-based
[9] = target: NAD(P)H dehydrogenase [quinone] 1 (Homo sapiens) (UniProt P15559); assay: Substrate activity at NQO1 in human A549 cells assessed as induction of ROS-induced Akt phosphorylation at S473 at 5 uM after 3 hrs by Western blot analysis relative to control; type: cell-based
A549 [10] = assay: Effect on total p38 protein levels in human A549 cells at 5 uM after 3 hrs by Western blot analysis relative to control; type: ADME, cell-based; details: a549, 3 h
A549 [11] = assay: Effect on total AKT protein levels in human A549 cells at 10 uM after 3 hrs in presence of DIC by Western blot analysis relative to control; type: ADME, cell-based; details: a549, 3 h
[12] = target: NAD(P)H dehydrogenase [quinone] 1 (Homo sapiens) (UniProt P15559); assay: Substrate activity at NQO1 in human A549 cells assessed as induction of ROS-induced p38 phosphorylation at T180/Y182 after 3 hrs by Western blot analysis; type: cell-based
[13] = target: NAD(P)H dehydrogenase [quinone] 1 (Homo sapiens) (UniProt P15559); assay: Substrate activity at NQO1 in human A549 cells assessed as induction of ROS-induced Akt phosphorylation at […] at 5 uM after 3 hrs by Western blot analysis relative to control; type: cell-based
[14] = target: NAD(P)H dehydrogenase [quinone] 1 (Homo sapiens) (UniProt P15559); assay: Substrate activity at NQO1 in human A549 cells assessed as induction of ROS-induced JNK phosphorylation at 10 uM after 3 hrs by Western blot analysis relative to control; type: cell-based
[15] = target: NAD(P)H dehydrogenase [quinone] 1 (Homo sapiens) (UniProt P15559); assay: Substrate activity at NQO1 in human A549 cells assessed as induction of ROS-induced ERK phosphorylation at 10 uM after 3 hrs in presence of NAC by Western blot analysis relative to control; type: cell-based
[16] = target: NAD(P)H dehydrogenase [quinone] 1 (Homo sapiens) (UniProt P15559); assay: Substrate activity at NQO1 in human A549 cells assessed as induction of enzyme-catalyzed ROS production at 10 uM after 1 to 3 hrs by DCFH-DA-based flow cytometry; type: cell-based
A549 [17] = assay: Induction of apoptosis in human A549 cells assessed as increase in cleaved PARP expression after 24 hrs by Western blot analysis; type: functional, cell-based
[18] = Intrinsic solubility of the compound; type: physicochemical; details: read-out: Intrinsic_solubility
Homo sapiens = species: Homo sapiens; assay: Selectivity ratio for substrate activity at recombinant human NQO1 to substrate activity at CBR (unknown origin)
[19] = target: NAD(P)H dehydrogenase [quinone] 1 (Homo sapiens) (UniProt P15559); assay: Substrate activity at NQO1 in human A549 cells assessed as induction of ROS-induced Akt phosphorylation at […] after 3 hrs by Western blot analysis; type: cell-based
A549 [20] = assay: Antitumor activity against human A549 cells xenografted in athymic nude mouse assessed as tumor growth inhibition at 15 mg/kg, iv administered every other day for 3 weeks measured every day during compound dosing relative to control; type: functional; details: 504 h, read-out: TGI
A549 [21] = assay: Effect on total p38 protein levels in human A549 cells at 1 uM after 3 hrs by Western blot analysis relative to control; type: ADME, cell-based; details: a549, 3 h
[22] = target: NAD(P)H dehydrogenase [quinone] 1 (Homo sapiens) (UniProt P15559); assay: Substrate activity at NQO1 in human A549 cells assessed as induction of ROS-induced JNK phosphorylation at 5 uM after 3 hrs by Western blot analysis relative to control; type: cell-based
A549 [23] = assay: Antitumor activity against human A549 cells xenografted in athymic nude mouse assessed as tumor growth inhibition at 50 mg/kg, iv administered every other day for 3 weeks measured every day during compound dosing relative to control; type: functional; details: 504 h, read-out: TGI
A549 [24] = assay: Effect on total p38 protein levels in human A549 cells at 10 uM after 3 hrs in presence of NAC by Western blot analysis relative to control; type: ADME, cell-based; details: a549, 3 h
[25] = target: NAD(P)H dehydrogenase [quinone] 1 (Homo sapiens) (UniProt P15559); assay: Substrate activity at NQO1 in human A549 cells assessed as induction of enzyme-catalyzed ROS production at 10 uM after 1 to 3 hrs in presence of NAC by DCFH-DA-based flow cytometry; type: cell-based
A549 [26] = assay: Induction of apoptosis in human A549 cells assessed as increase in cleaved PARP expression at 10 uM after 24 hrs in presence of NAC by Western blot analysis; type: functional, cell-based
Danio rerio = species: Danio rerio; assay: Hepatotoxicity in 48 hrs post fertilized transgenic liver zebrafish larvae model expressing LFABP:EGFP protein at 10 uM measured after 48 hrs post dose by fluorescence based assay; type: organism-based; details: in vivo
A549 [27] = assay: Antitumor activity against human A549 cells xenografted in athymic nude mouse assessed as tumor growth inhibition at 30 mg/kg, iv administered every other day for 3 weeks measured every day during compound dosing relative to control; type: functional; details: 504 h, read-out: TGI
A549 [28] = assay: Effect on total AKT protein levels in human A549 cells at 10 uM after 3 hrs by Western blot analysis relative to control; type: ADME, cell-based; details: a549, 3 h
[29] = target: NAD(P)H dehydrogenase [quinone] 1 (Homo sapiens) (UniProt P15559); assay: Substrate activity at recombinant human NQO1 expressed in Escherichia coli assessed as reduction rate by measuring umol of NADPH utilized per umol of enzyme at 10 uM preincubated for 3 mins followed by NADPH addition measured at 2 secs interval for 5 mins by UV-Vis spectroscopy
A549 [30] = assay: Reduction of intracellular NADPH levels in human A549 cells xenografted in athymic nude mouse at 15 to 30 mg/kg, iv administered every other day for 3 weeks by fluorescent NADP+/NADPH detection based assay; type: functional, organism-based
A549 [31] = assay: Induction of ROS levels in human A549 cells xenografted in athymic nude mouse at 15 to 30 mg/kg, iv administered every other day for 3 weeks by DCFH-DA-probe based flow cytometry; type: functional, organism-based

Chain of NAD(P)H dehydrogenase [quinone] 1 (Homo sapiens) (P15559 whole entry): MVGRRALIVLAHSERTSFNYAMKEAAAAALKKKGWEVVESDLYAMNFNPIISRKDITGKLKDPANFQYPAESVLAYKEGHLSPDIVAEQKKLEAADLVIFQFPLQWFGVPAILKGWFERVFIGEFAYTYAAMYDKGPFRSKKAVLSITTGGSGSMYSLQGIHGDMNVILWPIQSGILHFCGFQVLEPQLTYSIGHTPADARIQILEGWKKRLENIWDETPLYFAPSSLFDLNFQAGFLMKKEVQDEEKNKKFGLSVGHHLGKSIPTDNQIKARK

With `Cc1cc2c(cc1C)-c1oc(CNc3ccc(CN4CCOCC4)cc3)c(C)c1C(=O)C2=O` the Activity (A549 [1]) was “Dose-dependent effect”, the Activity [2] was “Dose-dependent effect” and the fold change (FC) [3] was 4.18. It also gave an Activity (Mus musculus) of 18%, a fold change (FC) [4] of 2.05 and a fold change (FC) [5] of 2.38. For the same compound, the “fold change (FC)” value (A549 [6]) was 1.11, the Activity (L02) was “Non-Toxic” and the fold change (FC) [7] was 7.1. For the same compound, the Activity [8] was “inactive”, the IC50 (NCI-H596) was 30 µM and the fold change (FC) [9] was 2.01. The “fold change (FC)” value (A549 [10]) was 1.1, the “fold change (FC)” value (A549 [11]) was 1.15 and the Activity [12] was “Dose-dependent effect”. It also gave a fold change (FC) [13] of 2.96, a fold change (FC) [14] of 30.5 and a fold change (FC) [15] of 2.21. The Activity [16] was “Active”, the Activity (A549 [17]) was “Dose-dependent effect” and the solubility [18] was 360 µg/mL (≈ 810 µM). The Selectivity ratio (Homo sapiens) was 8.49, the Activity [19] was “Dose-dependent effect” and the inhibition in vivo at 15 mg/kg (A549 [20]) was 65.8%. The “fold change (FC)” value (A549 [21]) was 0.93, the fold change (FC) [22] was 25.4 and the inhibition in vivo at 50 mg/kg (A549 [23]) was 90.3%. The “fold change (FC)” value (A549 [24]) was 0.99, the Activity [25] was “inactive” and the Activity (A549 [26]) was “inactive”. The Activity (Danio rerio) was “Non-Toxic”, the inhibition in vivo at 30 mg/kg (A549 [27]) was 87.1% and the “fold change (FC)” value (A549 [28]) was 1.3. For the same compound, the Activity [29] was 1520 µmol/min, the Activity (A549 [30]) was “Active” and the Activity (A549 [31]) was “Active”.
